# Marks after values point to notes of the source that are not given here.
# How the values were obtained:
# [1] = tested on: cerebellar granule neurons (CGN); assay: Survival of CGN induced to undergo apoptosis by low KCl; settings: for Neuronal Survival (% of Control): Low K+ (5 mM)
# Description: Cerebella granular meurons (CGN) (e and f) from postnatal day 7 rats were grown at a density of 100,000 cells/cm^2 for 7 days on poly-L-lysine coated microtiter plates in the medium containing 40 mM KCl, then the medium was substituted to a 5 mM KCl containing medium supplemented with various concentrations of FGLd.
# For the experiments cerebellar tissue was dissected in modified Krebs-Ringer solution kept on ice, and treated as described for the hippocampal neurons above. All cell cultures were incubated at 37° C. in a humidified atmosphere containing 5% CO2.
# Primary cultures of CGN were plated at a density of 100,000 cells/cm^2 on poly-L-lysine coated 8-well permanox slides in Neurobasal-A medium (Gibco, BRL) supplemented with 2% (v/v) B27, 0.5% (v/v) glutamax, 100 U/ml penicillin, 100 μg/ml streptomycin and KCl, making the final concentration of KCl in the medium 40 mM. 24 hours after plating, cytosine-β-D-arabinofuranoside (Ara-C; Sigma-Aldrich) was added to a final concentration of 10 μM to avoid proliferation of glial cells, after which the neurons were allowed to differentiate for further six days at 37° C. Apoptotic cell death was induced by washing twice and changing the medium to Basal Medium Eagle (BME; Gibco BRL) supplemented with 1% (v/v) glutamine, 100 U/ml penicillin and 100 μg/ml streptomycin, 3.5 g D-glucose/l and 1% (v/v) sodium pyruvate (Gibco BRL) together with various concentrations of peptide. Thereby the concentration of potassium in the cultures was reduced to 5 mM KCl. Two days after induction of apoptosis, the cells were fixed with 4% formaldehyde and stained with Hoechst 33258 as described for the survival assay employing hippocampal neurons.
# hippocampal neurons [2] = assay: Neurite outgrowth, hippocampal neurons; assay type: cell-based, rat; settings: at 0.3 μg/ml
# Description: (§1) The cultures were subsequently immunostained for tyrosine hydroxylase. Hippocampal neurons and CGN were plated at a density of 10,000 cells/cm^2 on 8-well permanox chamber slides and incubated for 24 hours in the presence of various concentrations of FGLd. Subsequently the neurons were immunostained for GAP-43. Results from at least five independent experiments for each neuronal culture are shown as percentage ±SEM with the untreated controls set at 100%. *p<0.05, **p<0.01, ***p<0.001 when compared to the controls.
# Results from at least four independent experiments are shown as percentage SEM with untreated controls set at 100%. **p<0.01 when compared to the controls.
# (§2) Peptide solutions without or with inhibitors of various signal transduction pathways were added to a total volume of 300 μl/cm^2, and the slides were incubated at 37° C. After 24 hours, the neurons were fixed with 4% (v/v) formaldehyde for 20 minutes and thereafter immunostained using primary rabbit antibodies against GAP-43 and Alexa Fluor secondary goat anti-rabbit antibodies. Images of at least 200 neurons for each group in each individual experiment were obtained systematically by using computer assisted fluorescence microscopy as previously described (Rønn et al., 2000 op. cit.). Briefly, a Nikon Diaphot inverted microscope with a Nikon Plan 20× objective (Nikon, Tokyo, Japan) coupled to a video camera (Grundig Electronics, Germany) was used for recordings. The same software package as described above for the dopaminergic neurite outgrowth assay was used to process the recorded images.
# [3] = tested on: FGL-induced neurite outgrowth in CGN cultures; assay: Effect of inhibitors of FGFR, MEK and PI3K on FGL-induced neurite outgrowth in CGN; assay type: cell-based, rat; settings: Rattus norvegicus, 27 μg/ml FGLd, FGLd-treated control = 100%, read-out: FGLd-induced neurite outgrowth in CGN in presence of inhibitor
# Description: CGN cultures were grown for 24 hours at a density of 10,000 cells/cm^2 on 8-well permanox slides in the presence of the FGL peptide and an inhibitor. PD98059 ([…]) was added at concentrations of 12.5, 25 and 50 μM simultaneously with 10 μg/ml FGLd; LY294002 (▴) was added at concentrations of 3.5, 7 and 10 μM simultaneously with 27 μg/ml FGLd. SU5402 (▪) was added in concentrations of 20, 40 and 80 μM simultaneously with 27 μg/ml FGLd. After the treatment cells were fixed and immunostained for GAP-43. Results from at least four independent experiments are shown as percentage ±SEM, with FGLd-treated control cultures set at 100%. The dashed line indicates the average neurite length in cultures without FGLd-treatment. *p<0.05, **p<0.01 when compared to the FGLd-treated controls.
# as §2
# dopaminergic neurons [4] = assay: Neurite outgrowth, dopaminergic neurons; assay type: cell-based, rat; settings: DN E14, 72 h
# Description: as §1
# After 72 hours of incubation, the neurons were fixed with 4% (v/v) formaldehyde and immunostained using a primary mouse monoclonal antibody against tyrosine hydroxylase and secondary biotinylated sheep anti-mouse antibodies followed by incubation with peroxidase conjugated streptavidin. 98 images for each experimental condition in each individual experiment were automatically recorded using a computerised microscope workstation described by Walmod et al. (2002) Toxicol Appl Pharmacol. 181:1-15. Briefly, the workstation consisted of an Eclipse TE 300 inverted microscope (Nikon, Tokyo, Japan) equipped with a motorised, movable microscope stage (LUDL Electronic Production Ltd, Hawthorne, N.Y., USA), a 10× objective and a 1100 analogue b/w CCD video camera (DFA, Denmark). A software package Prima developed at the Protein Laboratory (Copenhagen University, Denmark) was used to make a stereologically based determination of neurite length according to Rønn et al., (2000) J Neurosci Methods. 100:25-32).
# [5] = tested on: organotypic hippocampal neuronal slice cultures (OHSC); assay: OGD, propidium iodide staining of OHSC; assay type: cell-based, rat; settings: control peptide
# Text: In the present study it was investigated the effect of the FGL peptide on synaptic plasticity, neuronal function and vulnerability following oxygen and glucose deprivation (OGD) in organotypic hippocampal neuronal slice cultures (OHSC) from 7-day-old Wistar rats according to method of Stoppini et al. (1991) Neurosci Methods. 37:173-82 and primary cultures of dissociated hippocampal neurons from 1-day-old rats according to method of Maar et al. (1997) J Neurosci Res. 47:163-72. Primary cell cultures were maintained for 11-12 days and OHSC for 12-14 days prior to adding FGLd.
# The primary cell cultures and OHSC were exposed to OGD for 10 and 20 minutes. Following OGD, the cultures were again supplied with oxygen and glucose and analysed at 1, 4 or 24 hour time point after introduction of OGD exposure. FGLd (or the control peptide FGLc) was added 24 hr before, immediately, or 1 hr or 24 hr after OGD. When administered prior to OGD, FGLd was removed from the medium when introducing OGD. In some cases, the slice cultures were treated with FGLd only at 4 hr after OGD. In addition, the FGFR inhibitor, SU5402 (25 μM), was added together with FGLd in some of the set-ups.
# In hippocampal neuronal cultures, FM 1-43 staining was used to evaluate pre-synaptic function (described above). Cell viability in both primary cell cultures and OHSC was measured using the […] [3-(4,5-dimethylthiazol-2-yl)-2,5-diphenyltetrazolium bromide] assay according to Malich et al, (1997) Toxicology. 124:179-92. In, addition, cell viability in OHSC was measured using propidium iodide (PI) staining according to Laake et al. (1999) Brain Res Brain Res Protoc. 4:173-84.
# dopaminergic neurons [6] = assay: Survival of dopaminergic neurons exposed to 6-OHDA; assay type: cell-based, rat; settings: 10 ng/ml; 6-OHDA-treated control cells set to 100%
# Description: Dopaminergic neurons (DN) (a and b) from day 15 rat embryos grown at a density of 150,000 cells/cm^2 for six days without or with various concentrations of peptide on 24-well cell culture plates coated with poly-D-lysine were exposed to 100 μM 6-OHDA for two hours. Medium was changed and various concentrations of FGLd were added. The neurons were grown for another 24 hours before the cultures they were fixed and immunostained for tyrosine hydroxylase.
# Dopaminergic neurons were prepared from Wistar rat embryos at embryonic day 15 (Charles River, Sulzfeld, Germany or Møllegaard, Denmark). A pregnant rat was sacrificed and the uterus was taken out and kept on ice in Hank's balanced salt solution (HBSS; Gibco, BRL). The ventral part of the mesencephalon was dissected from the embryonic brains, homogenised on ice in Gey's balanced salt solution (GBSS; Gibco, BRL) supplemented with 5 g glucose/l (Sigma-Aldrich) and thereafter trypsinised. The dissociated cells were washed in the presence of DNAse 1 and soybean trypsin inhibitor (Sigma-Aldrich).
# For the survival assay isolated neurons were seeded at a density of 150,000 cells/cm^2 in 24-well cell culture plates coated with poly-D-lysine as described above. The neurons were left to differentiate for six days without or with various concentrations of the FGL peptide, after which 6-OHDA was added at a concentration of 100 μM for two hours. A stock solution was prepared by dissolving 6-OHDA to a concentration of 10 mM in 0.1% (w/v) sodium metabisulfite in order to prevent oxidation. After two hours with 6-OHDA, the medium was changed to Neurobasal medium with supplements and peptide, and the cell cultures were further incubated for 24 hours, fixed and immunostained for tyrosine hydroxylase. 98 images for each experimental condition in each individual experiment were automatically recorded as described for the dopaminergic neurite outgrowth assay below.
# hippocampal neurons [7] = assay: Survival of hippocampal neurons exposed to Aβ25-35; assay type: cell-based, rat; settings: 50 ng/ml; 20 μM Aβ25-35
# Description: For the experiments dissociated hippocampal neurons were isolated from Wistar rat embryos at embryonic day 19 or newborn rats as described by Rønn et al. (1999) Nat. Biotechnol. 17:1000-5.
# Briefly, hippocampus was isolated from the brain in ice cold modified Krebs Ringer solution, cleared of blood vessels, roughly homogenised by chopping and then trypsinised. The dissociated cells were washed in the presence of DNAse 1 and soybean trypsin inhibitor.
# For the assay neurons were plated at a density of 40,000 cells/cm^2 on 8-well permanox slides coated with 10 μg/ml poly-L-lysine in Neurobasal medium. 15 minutes after plating, Aβ25-35 was added to a final concentration of 20 μM. The Aβ25-35 had prior to plating been dissolved in sterile deionized water to a concentration of 3 mM and incubated at 37° C. for four days according to Pigino et al. (2001) J. Neurosci. 21:834-42. This treatment induces fibrillation of the Aβ-peptide fragment, thereby increasing its neurotoxic activity. The neurons were incubated with Neurobasal medium containing the FGL peptide for 70 hours, fixed with 4% (v/v) formaldehyde, and stained with Hoechst 33258 for 25 minutes as described by Kruman et al. (1997). Images of 1000-1500 neurons were randomly recorded for each group in each experiment using computer assisted fluorescence microscopy as described for the hippocampal neurite outgrowth assay. Nuclei from dead and live neurons were counted using the software package Prima developed at the Protein Laborator, Copenhagen University, and the fraction of live neurons relative to the total number of neurons was estimated.
molecule,measurement,setting,value
IGF-1: insulin-like growth factor 1,rescue of CGN from low KCl-induced cell death,"[1]; 50 ng/ml, 5 mM KCl",could be rescued
11-amino acids fragment of the sequence set forth in SEQ ID NO: 5: SEQ ID NO: 5 (VAENSRGKNVAKG) with two amino acids truncated from the C-terminus; from axonal-associated cell adhesion molecule (Axonal-associated cell adhesion molecule [NCBI: NP_446331]: FGFR binding motif),"maximal effect, increase in neurite length of rat hippocampal neurons",hippocampal neurons [2],500%
O=c1cc(N2CCOCC2)oc2c(-c3ccccc3)cccc12 [LY294002],FGLd-induced neurite outgrowth (% of FGLd-treated control) at 3.5 µM,[3]; 3.5 μM inhibitor,90%
same,FGLd-induced neurite outgrowth (% of FGLd-treated control) at 10 µM,[3]; 10 μM inhibitor,~50%
"EVYVVAENQQGKSKA (NCAM Fn III, 2 [Swiss-Prot: P13591]: FGFR binding motif) [FGLm, monomeric FGL peptide derived from NCAM]",Neuronal Survival (% of Control),"[1]; CGN (PND 3-4), 250 μg/mL",125%* % of Control
same,Neuronal Survival (% of Control),"[1]; CGN (PND 7-8), 10 μg/mL",110%* % of Control
same,Neuronal Survival (% of Control),"[1]; CGN (PND 7-8), 50 μg/mL",119%* % of Control
same,Neuronal Survival (% of Control),"[1]; CGN (PND 7-8), 250 μg/mL",142%* % of Control
same,Effect on Neurite Length (Percent Increase vs. Control),dopaminergic neurons [4]; 10 μg/mL,15%
same,Effect on Neurite Length (Percent Increase vs. Control),dopaminergic neurons [4]; 50 μg/mL,23%
same,Effect on Neurite Length (Percent Increase vs. Control),dopaminergic neurons [4]; 250 μg/mL,28%
EVYVVAENMGKSKA [FGLc],PI staining (cell damage) after 10 minutes of OGD,[5],did not affect cell damage induced by OGD
"GDNF: glia derived neurotrophic factor (protein, UniProt P39905 78-211, looked up) Glial cell line-derived …: SPDKQMAVLPRRERNRQAAAANPENSRGKGRRGQRGKNRGCVLTAIHLNVTDLGLGYETKEELIFRYCSGSCDAAETTYDKILKNLSRNRRLVSDKVGQACCRPIAFDDDLSFLDDNLVYHILRKHSAKRCGCI",survival of dopaminergic neurons treated with 6-OHDA,dopaminergic neurons [6],150%
"BDNF: brain derived neurotrophic factor (protein, UniProt P23560 19-247, looked up) Neurotrophic factor BDNF …: APMKEANIRGQGGLAYPGVRTHGTLESVNGPKAGSRGLTSLADTFEHVIEELLDEDQKVRPNEENNKDADLYTSRVMLSSQVPLEPPLLFLLEEYKNYLDAANMSMRVRRHSDPARRGELSVCDSISEWVTAADKKTAVDMSGGTVTVLEKVPVSKGQLKQYFYETKCNPMGYTKEGCRGIDKRHWNSQCRTTQSYVRALTMDSKKRIGWRFIRIDTSCVCTLTIKRGR",rescue of hippocampal neurons from Aβ25-35-induced cell loss,hippocampal neurons [7],could in part be rescued

# From patent publication US20090105149A1, “Compounds comprising lpa” (ENKAM PHARMACEUTICALS A/S, priority 2003, published 2009)
